Laboratory results as given in the supplement of paper PMC10307832.

Columns and labels:
Assay in all cases: relative viability (nuclei count vs DMSO), 5 days (fraction); higher = more cells survive
[1] = compound: Cn1cnc2c(F)c(Nc3ccc(Br)cc3Cl)c(C(=O)NOCCO)cc21 [Selumetinib] + Cc1nc(NC(=O)N2CCC[C@H]2C(N)=O)sc1-c1ccnc(C(C)(C)C(F)(F)F)c1 [Alpelisib] (partner 2 µM)
Method in brief: (§1)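 Medians of duplicate plates are given as relative viability. That measure is the nuclei count in treated wells divided by the count in vehicle wells. Counts were taken on 4× images of lung cancer cell lines in 1536-well plates, 5 days after pin-tool dosing the day after seeding with one drug alone or a fixed anchor-drug dose plus five library-drug doses (not always all listed) in √10 steps.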

[2] = compound: CC1(C)CCC(CN2CCN(c3ccc(C(=O)NS(=O)(=O)c4ccc(NCC5CCOCC5)c([N+](=O)[O-])c4)c(Oc4cnc5[nH]ccc5c4)c3)CC2)=C(c2ccc(Cl)cc2)C1 [Venetoclax] + N=C(N)NC(=N)NCCc1ccccc1 [Phenformin] (partner 250 µM)
Method in brief: as §1

[3] = compound: CC1(C)CCC(CN2CCN(c3ccc(C(=O)NS(=O)(=O)c4ccc(NCC5CCOCC5)c([N+](=O)[O-])c4)c(Oc4cnc5[nH]ccc5c4)c3)CC2)=C(c2ccc(Cl)cc2)C1 [Venetoclax] + CC1(C)CCC(c2ccc(Cl)cc2)=C(CN2CCN(c3ccc(C(=O)NS(=O)(=O)c4ccc(N[C@H](CCN5CCOCC5)CSc5ccccc5)c(S(=O)(=O)C(F)(F)F)c4)cc3)CC2)C1 [Navitoclax] (partner 0.5 µM)
Method in brief: as §1

[4] = compound: Cn1cnc2c(F)c(Nc3ccc(Br)cc3Cl)c(C(=O)NOCCO)cc21 [Selumetinib] + CCNC(=O)c1noc(-c2cc(C(C)C)c(O)cc2O)c1-c1ccc(CN2CCOCC2)cc1 [Luminespib] (partner 0.01 µM)
Method in brief: as §1

Cell Line | relative viability ([1]; first compound 0.02 µM) | relative viability ([1]; first compound 0.06325 µM) | relative viability ([1]; first compound 0.2 µM) | relative viability ([1]; first compound 0.6325 µM) | relative viability ([2]; first compound 0.01 µM) | relative viability ([2]; first compound 0.03162 µM) | relative viability ([2]; first compound 0.1 µM) | relative viability ([2]; first compound 0.3162 µM) | relative viability ([2]; first compound 1 µM) | relative viability ([3]; first compound 0.01 µM) | relative viability ([3]; first compound 0.03162 µM) | relative viability ([3]; first compound 0.1 µM) | relative viability ([3]; first compound 0.3162 µM) | relative viability ([3]; first compound 1 µM) | relative viability ([4]; first compound 0.02 µM) | relative viability ([4]; first compound 0.06325 µM) | relative viability ([4]; first compound 0.2 µM) | relative viability ([4]; first compound 0.6325 µM)
201T | 0.95 | 0.954 | 0.906 | 0.824 | 0.451 | 0.433 | 0.456 | 0.466 | 0.411 | 1.17 | 1.24 | 1.27 | 1.19 | 1.21 | 1.08 | 1.03 | 0.962 | 0.906
A549 | 0.675 | 0.438 | 0.311 | 0.296 | 0.141 | 0.147 | 0.129 | 0.164 | 0.129 | 1.29 | 1.25 | 1.23 | 1.17 | 1.08 |  |  |  | 
A-427 | 1.06 | 1.05 | 0.936 | 0.817 | 0.292 | 0.322 | 0.31 | 0.348 | 0.259 | 0.874 | 1.1 | 0.967 | 0.988 | 1.01 | 0.901 | 0.986 | 0.953 | 0.874
ABC-1 | 0.826 | 0.743 | 0.852 | 0.643 | 0.234 | 0.269 | 0.236 | 0.241 | 0.228 |  |  |  |  |  | 0.581 | 0.422 | 0.607 | 0.314
BEN | 1.02 | 0.932 | 0.861 | 0.886 | 0.26 | 0.306 | 0.302 | 0.273 | 0.264 | 0.36 | 0.0558 | 0.072 | 0.0753 | 0.0581 | 0.28 | 0.83 | 0.404 | 0.347
CAL-12T | 1.22 | 0.823 | 0.895 | 0.817 | 0.543 | 0.575 | 0.567 | 0.555 | 0.539 | 1.4 | 1.22 | 0.956 | 1.15 | 1.1 | 0.322 | 0.365 | 0.284 | 0.362
COR-L23 | 0.91 | 0.825 | 0.793 | 0.654 | 0.42 | 0.442 | 0.413 | 0.43 | 0.423 | 0.996 | 1.07 | 0.947 | 0.947 | 0.86 | 0.644 | 0.637 | 0.721 | 0.409
COR-L 105 | 1.29 | 0.746 | 0.767 | 0.6 | 0.583 | 0.462 | 0.462 | 0.493 | 0.458 | 0.743 | 0.755 | 0.782 | 0.794 | 0.748 | 0.769 | 0.689 | 0.46 | 0.404
Calu-6 | 0.936 | 0.613 | 0.486 | 0.346 |  |  |  |  |  | 0.716 | 0.934 | 0.851 | 0.91 | 0.832 |  |  |  | 
ChaGo-K-1 |  |  |  |  | 0.539 | 0.489 | 0.429 | 0.49 | 0.453 | 1.02 | 1.24 |  | 1.09 | 1.06 | 0.531 | 0.48 | 0.731 | 0.568
EBC-1 | 0.779 | 0.591 | 0.556 | 0.361 |  |  |  |  |  | 0.389 | 0.455 | 0.479 | 0.443 | 0.47 |  |  |  | 
EKVX | 0.678 | 0.711 | 0.61 | 0.448 | 0.229 | 0.236 | 0.223 | 0.239 | 0.233 | 0.985 | 0.995 | 0.917 | 0.891 | 0.854 | 0.931 | 0.587 | 0.657 | 0.665
EMC-BAC-2 | 0.678 | 0.694 | 0.645 | 0.712 | 0.483 | 0.524 | 0.519 | 0.512 | 0.475 | 1.09 | 1.17 | 1.14 | 1.15 | 1.07 | 1.19 | 1.18 | 1.1 | 1.12
EPLC-272H | 0.749 | 0.656 | 0.58 | 0.66 | 0.353 | 0.312 | 0.286 | 0.321 | 0.295 |  | 1.23 | 1.12 | 1.14 | 1.05 | 0.22 | 0.276 | 0.203 | 0.171
H3255 | 0.596 | 0.678 | 0.573 | 0.556 | 0.407 | 0.43 | 0.348 | 0.345 | 0.414 | 0.54 | 0.573 | 0.433 | 0.618 | 0.498 | 1.04 | 0.918 | 1.05 | 0.87
HARA | 0.701 | 0.647 | 0.549 | 0.353 | 0.415 | 0.406 | 0.464 | 0.467 | 0.447 | 0.996 | 1.17 | 1.1 | 1.11 | 1.15 | 0.708 | 0.783 | 0.536 | 0.168
HCC-15 | 0.683 | 0.405 | 0.347 | 0.19 | 0.451 | 0.48 | 0.455 | 0.448 | 0.406 | 0.674 | 0.707 | 0.635 | 0.621 | 0.588 | 0.199 | 0.19 | 0.158 | 0.0809
HCC-44 | 0.88 | 0.72 | 0.719 | 0.663 | 0.362 | 0.153 | 0.165 | 0.161 | 0.182 | 0.987 | 0.943 | 0.891 | 0.979 | 0.975 | 1.33 | 1.03 | 0.909 | 0.519
HCC-78 | 0.286 | 0.321 | 0.219 | 0.298 | 0.782 | 0.776 | 0.699 | 0.671 | 0.606 | 0.97 | 0.895 | 0.688 | 0.755 | 0.84 |  |  |  | 
